The results in this text go back to patent US20250353853A1, “FLAVIVIRUS INHIBITORS” (IRBM S.P.A., priority 2022, published 2025).

Where two headings read alike, the source gives them in different places.

Assay [1] deals with West Nile Virus (WNV) NS2B-NS3 protease (West Nile virus (WNV), UniProt P06935). Nature of the assay: WNV Protease Inhibition Assay. Type of assay: biochemical. An excerpt: WNV Protease Inhibition Assay
Assay [2] relates to ZIKV replicon in Vero cells. The experiment in a line: ZIKV Replication Inhibition Assay (replicon, NanoLuc). The conditions noted are these: Zika virus, Vero, 72 h, read-out: Zika Replicon EC50.
[3] abbreviates: 2 nM protease, 10 μM pERTKR-AMC substrate, read-out: WNV Protease IC50.

Sequence of West Nile Virus (WNV) NS2B-NS3 protease (P06935 1502-1679 limits assumed): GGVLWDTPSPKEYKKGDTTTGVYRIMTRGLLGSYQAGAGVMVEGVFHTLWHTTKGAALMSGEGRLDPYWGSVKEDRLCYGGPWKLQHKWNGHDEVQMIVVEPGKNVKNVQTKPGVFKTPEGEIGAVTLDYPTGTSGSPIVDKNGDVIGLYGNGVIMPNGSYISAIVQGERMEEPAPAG
Sequence of West Nile Virus (WNV) NS2B-NS3 protease (P06935 1371-1501 partner limits assumed): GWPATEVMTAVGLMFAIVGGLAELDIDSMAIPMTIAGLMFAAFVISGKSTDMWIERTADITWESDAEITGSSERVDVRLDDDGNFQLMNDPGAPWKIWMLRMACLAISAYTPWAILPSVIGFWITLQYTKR

For `Cc1noc(C)c1-c1ccc([C@@H](C)[n+]2cc([N-]C(=O)Nc3ccnc(C(F)(F)F)c3)on2)cc1` [Example 189, (R)-(3-(1-(4-(3,5-dimethylisoxazol-4-yl)phenyl)ethyl)-1,2,3-oxadiazol-3-ium-5-yl)((2-(trifluoromethyl)pyridin-4-yl)carbamoyl)amide], in assay [1], the IC50 (commonly the concentration that inhibits the measured activity by half) lay in the range of 100 to 1000 nM. The EC50 (in general, the concentration giving half of the maximal effect) in assay [2] lay in the range of 100 to 1000 nM.
For the compound `O=C([N-]c1c[n+](Cc2ccc(-c3cncnc3)cn2)no1)Nc1cncc(C(F)(F)F)c1` [Example 125, (3-((5-(pyrimidin-5-yl)pyridin-2-yl)methyl)-1,2,3-oxadiazol-3-ium-5-yl)((5-(trifluoromethyl)pyridin-3-yl)carbamoyl)amide], in assay [1], the half-maximal inhibitory concentration (IC50) lay within 100 to 1000 nM. In addition, in assay [2], the EC50 lay in the range of 100 to 1000 nM.
As to `Cc1cnn(C)c1-c1ccc(C[n+]2cc([N-]C(=O)Nc3cncc(C(F)(F)F)c3)on2)nc1` [Example 178, (3-((5-(1,4-dimethyl-1H-pyrazol-5-yl)pyridin-2-yl)methyl)-1,2,3-oxadiazol-3-ium-5-yl)((5-(trifluoromethyl)pyridin-3-yl)carbamoyl)amide], the IC50 in assay [1] was 100 to 1000 nM. Besides, the EC50 in assay [2] is < 100 nM.
The compound `O=C([N-]c1c[n+](Cc2ccc(-c3ccncc3)cc2)no1)Nc1cccc(C(F)(F)F)c1` [Example 39, (3-(4-(pyridin-4-yl)benzyl)-1,2,3-oxadiazol-3-ium-5-yl)((3-(trifluoromethyl)phenyl)carbamoyl)amide] showed an IC50 in assay [1] of 100 to 1000 nM. In assay [2], the EC50 lay within 100 to 1000 nM.
For `O=C([N-]c1c[n+](Cc2ccc(-c3cncnc3Cl)cn2)no1)Nc1cccc(C(F)(F)F)c1` [Example 179, (3-((5-(4-chloropyrimidin-5-yl)pyridin-2-yl)methyl)-1,2,3-oxadiazol-3-ium-5-yl)((3-(trifluoromethyl)phenyl)carbamoyl)amide], the IC50 in assay [1] (setting [3]) was < 100 nM. Besides, the EC50 in assay [2] was 1000 to 20000 nM.
For `Cc1noc(C)c1-c1ccc(C[n+]2cc([N-]C(=O)Nc3cccc(C(F)(F)F)c3)on2)nn1` [Example 173, (3-((6-(3,5-dimethylisoxazol-4-yl)pyridazin-3-yl)methyl)-1,2,3-oxadiazol-3-ium-5-yl)((3-(trifluoromethyl)phenyl)carbamoyl)amide], in that order: < 100 nM and < 100 nM.
In assay [1], `Cc1n[nH]c(C)c1-c1ccc(C[n+]2cc([N-]C(=O)Nc3cccc(C(F)(F)F)c3)on2)nc1` [Example 151, (3-((5-(3,5-dimethyl-1H-pyrazol-4-yl)pyridin-2-yl)methyl)-1,2,3-oxadiazol-3-ium-5-yl)((3-(trifluoromethyl)phenyl)carbamoyl)amide] registered an IC50 of 100 to 1000 nM. The half-maximal effective concentration (EC50) in assay [2] fell in the range of 100 to 1000 nM.
In the case of `Cc1cnncc1-c1ccc(C[n+]2cc([N-]C(=O)Nc3cncc(C(F)(F)F)c3)on2)nc1` [Example 128, (3-((5-(5-methylpyridazin-4-yl)pyridin-2-yl)methyl)-1,2,3-oxadiazol-3-ium-5-yl)((5-(trifluoromethyl)pyridin-3-yl)carbamoyl)amide], in assay [1], the half-inhibitory concentration (IC50) fell in the range of 100 to 1000 nM. Further, the EC50 in assay [2] was 1000 to 20000 nM.
In the case of `Cc1ncnc(C)c1-c1ccc(C[n+]2cc([N-]C(=O)Nc3cncc(C(F)(F)F)c3)on2)nc1` [Example 132, (3-((5-(4,6-dimethylpyrimidin-5-yl)pyridin-2-yl)methyl)-1,2,3-oxadiazol-3-ium-5-yl)((5-(trifluoromethyl)pyridin-3-yl)carbamoyl)amide], the half-maximal inhibitory concentration (IC50) in assay [1] was in the range of 100 to 1000 nM. For the same compound, the concentration for a half-maximal effect (EC50) in assay [2] lay in the range of 100 to 1000 nM.
`O=C([N-]c1c[n+](Cc2ccc(-c3c(F)cncc3F)cn2)no1)Nc1cccc(C(F)(F)F)c1` [Example 170, (3-((3′,5′-difluoro-[3,4′-bipyridin]-6-yl)methyl)-1,2,3-oxadiazol-3-ium-5-yl)((3-(trifluoromethyl)phenyl)carbamoyl)amide] registered an IC50 in assay [1] of 100 to 1000 nM. For the same compound, the EC50 in assay [2] was < 100 nM.
In assay [1], `O=C([N-]c1c[n+]([C@@H]2CCC[C@H]2c2ccccc2)no1)Nc1cccc(C(F)(F)F)c1` [Example 59, (3-((1R,2S)-2-phenylcyclopentyl)-1,2,3-oxadiazol-3-ium-5-yl)((3-(trifluoromethyl)phenyl)carbamoyl)amide] gave an IC50 of 1000 to 20000 nM. Also, in assay [2], the concentration for a half-maximal effect (EC50) lay in the range of 100 to 1000 nM.
Turning to `O=C([N-]c1c[n+](Cc2ccc(-c3ccnnc3)cc2)no1)Nc1cccc(C(F)(F)F)c1` [Example 61, (3-(4-(pyridazin-4-yl)benzyl)-1,2,3-oxadiazol-3-ium-5-yl)((3-(trifluoromethyl)phenyl)carbamoyl)amide], the IC50 in assay [1] (setting [3]) was < 100 nM. For the same compound, in assay [2], the EC50 is < 100 nM.
Turning to `Cc1noc(C)c1-c1ccc(C[n+]2cc([N-]C(=O)Nc3cc(F)cc(C(F)(F)F)c3)on2)nc1` [Example 153, (3-((5-(3,5-dimethylisoxazol-4-yl)pyridin-2-yl)methyl)-1,2,3-oxadiazol-3-ium-5-yl)((3-fluoro-5-(trifluoromethyl)phenyl)carbamoyl)amide], the IC50 in assay [1] lay in the range of 100 to 1000 nM. The 50% effective concentration (EC50) in assay [2] is < 100 nM.
For `Cc1ncnc(C)c1-c1ccc(C[n+]2cc([N-]C(=O)Nc3ccnc(C(F)(F)F)c3)on2)nc1` [Example 176, (3-((5-(4,6-dimethylpyrimidin-5-yl)pyridin-2-yl)methyl)-1,2,3-oxadiazol-3-ium-5-yl)((2-(trifluoromethyl)pyridin-4-yl)carbamoyl)amide], the half-maximal inhibitory concentration (IC50) in assay [1] (setting [3]) is < 100 nM. In assay [2], the concentration for a half-maximal effect (EC50) lay within 100 to 1000 nM.
Take `N#Cc1ncncc1-c1ccc(C[n+]2cc([N-]C(=O)Nc3cccc(C(F)(F)F)c3)on2)nc1` [Example 148, (3-((5-(4-cyanopyrimidin-5-yl)pyridin-2-yl)methyl)-1,2,3-oxadiazol-3-ium-5-yl)((3-(trifluoromethyl)phenyl)carbamoyl)amide]: the IC50 in assay [1] (setting [3]) was < 100 nM. Further, the concentration giving a half-maximal response (EC50) in assay [2] was in the range of 100 to 1000 nM.
The compound `O=C([N-]c1c[n+](Cc2cccc(-c3cccnc3)c2)no1)Nc1cccc(C(F)(F)F)c1` [Example 51, (3-(3-(pyridin-3-yl)benzyl)-1,2,3-oxadiazol-3-ium-5-yl)((3-(trifluoromethyl)phenyl)carbamoyl)amide] showed a half-maximal inhibitory concentration (IC50) in assay [1] of 100 to 1000 nM. Moreover, the 50% effective concentration (EC50) in assay [2] is 100 to 1000 nM.
On to `Cc1noc(C)c1-c1ccc(C[n+]2cc([N-]C(=O)Nc3ccnc(C(F)(F)F)c3)on2)cc1` [Example 186, (3-(4-(3,5-dimethylisoxazol-4-yl)benzyl)-1,2,3-oxadiazol-3-ium-5-yl)((2-(trifluoromethyl)pyridin-4-yl)carbamoyl)amide], for which the half-maximal inhibitory concentration (IC50) in assay [1] (setting [3]) is < 100 nM. For the same compound, the EC50 in assay [2] was < 100 nM.
In the case of `COc1ncc(-c2ccc(C[n+]3cc([N-]C(=O)Nc4cccc(C(F)(F)F)c4)on3)cc2)cn1` [Example 41, (3-(4-(2-methoxypyrimidin-5-yl)benzyl)-1,2,3-oxadiazol-3-ium-5-yl)((3-(trifluoromethyl)phenyl)carbamoyl)amide], the half-inhibitory concentration (IC50) in assay [1] (setting [3]) is < 100 nM. In assay [2], the EC50 was 100 to 1000 nM.
Turning to `C[C@@H](c1ccc(Br)cc1)[n+]1cc([N-]C(=O)Nc2cccc(C(F)(F)F)c2)on1` [Example 69, (S)-(3-(1-(4-bromophenyl)ethyl)-1,2,3-oxadiazol-3-ium-5-yl)((3-(trifluoromethyl)phenyl)carbamoyl)amide], the 50% inhibitory concentration (IC50) in assay [1] fell in the range of 1000 to 20000 nM. Further, the EC50 in assay [2] fell in the range of 100 to 1000 nM.
